{"source": "patent EP0346759A2", "about": "“Cholestadiene derivatives, process for their preparation, and their use as medicines with a HMG-CoA reductase-inhibiting activity” (HOECHST AKTIENGESELLSCHAFT, priority 1988, dated 1989)", "tested_on": "Cholesterin-Biosynthese", "experiment": "Inhibition of cholesterol biosynthesis in cell culture by 14C-precursor (14C sodium acetate) incorporation into cholesterol", "assay_type": "cell-based", "conditions": "HEP-G2-Zellen, 1 % DMSO", "from_the_text": "Prüfung auf Cholesterin-Biosynthese-Hemmung In Zellkulturen durch ^14C-Präkursoreinbau In Cholesterin.\nMonolayers von HEP G2-Zellen in lipoproteinfreiem Nährmedium wurden mit entsprechenden Konzentrationen der Prüfsubstanzen 1 Stunde vorinkubiert; nach Zugabe des ^14C-markierten Präkursors '^4C-Natriumacetat wurde die Inkubation für 3 Stunden fortgesetzt. Danach wurde ein Teil der Zellen bei vorheriger Zugabe eines internen Standards von ^3H-Cholesterin alkalisch verseift. Die Lipide der verseiften Zellen wurden mit Chloroform-Methanol extrahiert. Dieses Lipidgemisch wurde nach Zusatz von Träger-Cholesterin präparativ dünnschichtchromatographisch getrennt, die Cholesterin-Bande nach dem Sichtbarmachen mit Jod-Dämpfen isoliert und die aus dem ^14C-Präkursor gebildete Menge ^14C-Cholesterins szintigraphisch bestimmt. In einem aliquoten Teil der Zellen wurde Zellprotein bestimmt, sodaß die in der Zeiteinheit/mg Zellprotein aus ^14C-Präkursor gebildete Menge ^14C-Cholesterins berechnet werden kann. Zum Vergleich für die Hemmwirkung eines zugesetzten Prüfpräparates diente die Lösungsmittelkontrolle, sodaß direkt die Hemmung der Cholesterin-Biosynthese bei einer bestimmten molaren Konzentration des Prüfpräparates im Medium angegeben werden kann. In aliquoten Anteilen der Zellkultur wurde die Intaktheit der Zellkulturen und die fehlende Zellschädigung durch Präparate-Einwirkung morphologisch (Lichtmikroskop) beurteilt.\nCholesterol-Biosynthese-Hemmung Zellkultur: HEP-G2-Zellen Lösungsmittel-Endkonzentration: 1 % DMSO"}
{"substance": "3ß-Hydroxy-chola-5,23t-dien-24-carbonsäure-methylester [Beispiel 9]", "values": [{"measurement": "IC50", "setting": "Cholesterol-Biosynthese-Hemmung", "value": "~500", "unit": "nM"}, {"measurement": "Acetateinbau in Cholesterin im Vergleich zur Kontrolle", "setting": "Präparat-Konzentration 1,0 x 10^-6 Mol/1, 1 µM", "value": 52, "unit": "%"}, {"measurement": "Acetateinbau in Cholesterin im Vergleich zur Kontrolle", "setting": "Präparat-Konzentration 1,0 x 10^-7 Mol/1, 0.1 µM", "value": 56, "unit": "%"}, {"measurement": "Acetateinbau in Cholesterin im Vergleich zur Kontrolle", "setting": "Präparat-Konzentration 2,5 x 10^-4 Mol/1, 250 µM", "value": 6, "unit": "%"}, {"measurement": "Acetateinbau in Cholesterin im Vergleich zur Kontrolle", "setting": "Präparat-Konzentration 2,5 x 10^-5 Mol/1, 25 µM", "value": 17, "unit": "%"}]}
